{
  "source": "patent US20220389515A1",
  "about": "“USE OF BIOMARKERS TO PREDICT CLINICAL SENSITIVITY TO 2-(4-CHLOROPHENYL)-N-((2-(2,6-DIOXOPIPERIDIN-3-YL)-1-OXOISOINDOLIN-5-YL)METHYL)-2,2-DIFLUOROACETAMIDE” (priority 2019, published 2022)",
  "key": {"U937 and OCI-AML2 cells": {"system": "U937 and OCI-AML2 cells", "assay": "Flow cytometry-based CRISPR competition assay (RFP+/GFP+ ratio)", "format": "cell-based, human", "protocol": "To investigate the role of the mTOR signaling pathway in mediating Compound D sensitivity, a CRISPR competition assay was performed (see FIG. 6A). U937 cells stably expressing Cas9 were infected with a lentiviral vector expressing GFP and non-targeting sgRNA (sgNT), or lentiviral vectors expressing RFP and non-targeting sgRNA (sgNT), or lentiviral vectors expressing RFP and sgRNAs targeting MTOR, RICTOR or RAPTOR. Cells were then treated with DMSO or 100 nM Compound D. The RFP+/GFP+ ratio was monitored by flow cytometry every 2-3 days thereafter.\nNext, CRISPR competition assays were conducted in U937 and OCI-AML2 cells as described above. Specifically, U937 cells stably expressing Cas9 were infected with lentiviral vector constitutively expressing GFP and non-targeting sgRNA (sgNT), or with lentiviral vectors constitutively expressing RFP and non-targeting sgRNA (sgNT) or sgRNAs targeting TSC1 or TSC2. Three days after infection, RFP and GFP cells were mixed at a 1:1 ratio and treated with DMSO, 1 μM Compound D, or 10 μM Compound D. The change of RFP+/GFP+ ratio was monitored by flow cytometry every 2-3 days thereafter. Similarly, OCI-AML2 cells stably expressing Cas9 were infected with lentiviral vector constitutively expressing GFP and non-targeting sgRNA (sgNT), or with lentiviral vectors constitutively expressing RFP and non-targeting sgRNA (sgNT) or sgRNAs targeting TSC1 or TSC2. Three days after infection, RFP and GFP cells were mixed at a 1:1 ratio and treated with DMSO, 0.1 μM Compound D, or […] Compound D. The change of RFP+/GFP+ ratio was monitored by flow cytometry every 2-3 days thereafter.\nA CRISPR competition assay was performed as shown in the upper panel of FIG. 5A, and similarly to the assay described above. U937 cells stably expressing Cas9 were infected with a lentiviral vector constitutively expressing GFP and non-targeting sgRNA (sgNT), or with lentiviral vectors constitutively expressing RFP and non-targeting sgRNA (sgNT) or sgRNAs targeting GCN2. On day 2, RFP and GFP cells were mixed at a 1:1 ratio and treated with DMSO or 100 nM Compound D. The change of RFP+/GFP+ ratio was monitored by flow cytometry every 2-3 days thereafter.\nNext, CRISPR competition assays were conducted in U937 and OCI-AML2 cells as described above. Specifically, U937 and OCI-AML2 cell lines were transduced with plenti-EF1á-Cas9-P2A-Blast, followed by Blasticidin selection to establish Cas9-expressing cell lines. U937-Cas9 and OCI-AML2-Cas9 cells were then transduced with pRSG17-U6-sgNT-1-UbiC-TagGFP2-2A-Puro, or pRSG16-U6-UbiC-TagRFP-2A-Puro vectors expressing sgNT-1, sgNC-1, sgNC-8 or gene-specific sgRNAs. Transduced cells were washed with 1×PBS 72 hours post-transduction. Cells were assessed for transduction via RFP or GFP fluorescence reporter expression. Once fluorescence reporter expression was confirmed, RFP- and GFP-transduced cells were mixed at a 1:1 ratio and seeded in 2 ml culture media per well in 12-well tissue culture plates at a cell density of 200,000 cells per mL, and treated with DMSO or an appropriate dose of Compound. Remaining cells underwent puromycin selection for 3-7 days and were harvested for immunoblot analysis to confirm gene knock-out. After seeding cells for culture in 12-well plates, 100 iL cell culture per well was removed for flow cytometric analysis as the baseline “Day 0” RFP- and GFP-positive percentages in each well. […]"}, "[1]": {"system": "U937 Cas9 cell lines and OCI-AML2 Cas9 cell lines", "assay": "Cell proliferation assay (CTG, 5 days) in sgRNA knockout Cas9 lines", "format": "cell-based, human", "protocol": "Then, a cell proliferation assay was performed. Compound D dissolved in DMSO was injected into 96-well cell culture plates using a HP D300 digital dispenser in triplicate Compound D concentrations. One week after infection to knock-out the indicated genes, each of U937 Cas9 cell lines and OCI-AML2 Cas9 cell lines were plated in triplicate with 5000 cells in 100 μL complete culture media per well in the 96-well plates. After 5 days, cell proliferation was assessed using CTG (CellTiter-Glo) according to the manufacturer's instructions to assess the effects of Compound D on proliferation of each cell line."}},
  "note": "“Also recorded” adds a separate entry of the source.",
  "data": [
    {"smiles": "O=C1CCC(N2Cc3cc(CNC(=O)C(F)(F)c4ccc(Cl)cc4)ccc3C2=O)C(=O)N1", "note": "(stereo not shown) [Compound D, 2-(4-chlorophenyl)-N-((2-(2,6-dioxopiperidin-3-yl)-1-oxoisoindolin-5-yl)methyl)-2,2-difluoroacetamide]", "values": [
      {"measurement": "response after TSC1 or TSC2 knockout", "setting": "U937 and OCI-AML2 cells; U937 1 μM or 10 μM, OCI-AML2 0.1 μM or 1 μM", "result": "conferred a growth advantage in the presence of, but not in the absence of, Compound D; also recorded: increased resistance to Compound D"},
      {"measurement": "growth inhibition after loss of GCN1, GCN2, ATF4 or DDIT4", "setting": "U937 and OCI-AML2 cells; U937 (10 μM) and OCI-AML2", "result": "protected the cells against Compound D-induced growth inhibition"},
      {"measurement": "response of cells lacking GCN2", "setting": "U937 and OCI-AML2 cells; U937, 100 nM", "result": "resistant to Compound D"},
      {"measurement": "sensitivity after knockout of mTOR, Raptor and Rictor", "setting": "U937 and OCI-AML2 cells; U937, 100 nM", "result": "enhances U937 sensitivity to Compound D"},
      {"measurement": "response after ILF2 or ILF3 knockout", "setting": "U937 and OCI-AML2 cells; U937 and OCI-AML2", "result": "led to Compound D resistance"},
      {"measurement": "anti-proliferative effects after depletion of TSC1 and TSC2", "setting": "[1]; U937", "result": "diminished this effect"},
      {"measurement": "anti-proliferative effects in control cells", "setting": "[1]; parental, sgNT-1 and sgNC-8 controls", "result": "dose-dependent anti-proliferative effects"}
    ]}
  ]
}
